Experimental data published in PMC8512560, “Design, Synthesis, and Antipoliferative Activities of Novel Substituted Imidazole-Thione Linked Benzotriazole Derivatives” (Molecules, 2021).

Tests used:
Bcl-2 = experiment: Western blot of Bcl-2 expression in HL-60 cells; type: cell-based, human; settings: HL-60, 0.5 and 1 µM, compared to the untreated group
Method: HL-60 cells were seeded at a density of 1 × 10^5 cells/flask in T25 flasks. […] HL-60 cells were harvested in RIPA buffer supplemented with protease inhibitors (Roche Diagnostics), phosphatase inhibitor cocktail 2 (Sigma-Aldrich), and phosphatase inhibitor cocktail 3 (Sigma-Aldrich). Equal quantities of protein (as determined by a BCA assay) were resolved by SDS-PAGE (12%) followed by transfer to PVDF membranes. Membranes were blocked in 5% bovine serum albumin/TBST for 1 h. Membranes were incubated in the relevant primary antibodies at 4 °C overnight, washed with TBST, and incubated in horseradish peroxidase conjugated secondary antibody for 1 h at rt and washed again. Western blot analysis was performed as described above using antibodies directed against BAX [1:1000] (Cell Signaling Technology), PARP [1:500] (Cell Signaling Technology) and Bcl-2 [1:500] (Cell Signaling Technology) followed by incubation with a horseradish peroxidase-conjugated anti-mouse antibody [1:2000] (Promega, Madison, WI, USA). All blots were probed with β-actin antibody [1:5000] (Sigma) to confirm equal loading. Proteins were detected using enhanced chemiluminescent Western blot detection (Clarity Western ECL substrate) (Bio Rad) on the ChemiDoc MP System (Bio Rad). Experiments were performed on three independent occasions.

[1] = system: MCF-7 human breast cancer cell line; experiment: MTT viability assay, MCF-7; type: cell-based; settings: Homo sapiens, MCF7, 72 h, mean ± SD of three independent experiments, read-out: Antiproliferative Activities IC50, MCF-7
Method: (§1) All the human tumour cell lines MCF-7, HL-60, HCT-116, and HUVEC were cultured in Dulbecco’s Modified Eagle’s Medium (DMEM) with 10% fetal bovine serum, 2 mM L-glutamine and 100 µg/mL penicillin/streptomycin. Cells were maintained at 37 °C in 5% CO2 in a humidified incubator. All cells were sub-cultured three times/week by trypsinization using TrypLE Express (1X).
(§2) The Benzotriazole compounds were evaluated for antiproliferative effect using the MTT viability assay of various cancer cell lines (MCF-7, HCT-116 and HL-60) and the normal human umbilical vein endothelial cell line (HUVEC) to calculate the relative IC50 values for each compound. Cells were seeded in triplicate in 96-well plates at a density of 10 × 10^3 cells/mL in a total volume of 200 µL per well. 0.1% of DMSO was used as a vehicle control. After this time, they were treated with 2 µL test compound which had been pre-prepared as stock solutions in ethanol to furnish the concentration range of study, 10 nM to 100 µM, and re-incubated for a further 72 h. The culture medium was then removed, and the cells washed with 100 µL phosphate buffered saline (PBS) and 50 µL MTT added, to reach a final concentration of 1 mg/mL MTT added. Cells were incubated for 2 h in darkness at 37 °C. At this point solubilisation was begun through the addition of […] DMSO and the cells maintained at room temperature in darkness for 20 min to ensure thorough colour diffusion before reading the absorbance. Plates were incubated for 72 h at 37 °C + 5% CO2. The MTT (5 mg/mL in PBS) was added and incubated for another 4 h, and the optical density was detected with a microplate reader at 570 nm. Results were expressed as percentage viability relative to vehicle control (100%). Dose response curves were plotted and IC50 values (concentration of drug resulting in 50% reduction in cell survival) were obtained using the commercial software package Prism (GraphPad Software, Inc., La Jolla, CA, USA). All the experiments were repeated in at least three independent experiments.

PARP = experiment: Western blot of PARP cleavage in HL-60 cells; type: cell-based, human; settings: HL-60, after a 48 h treatment
Method: HL-60 cells were seeded at a density of 1 × 10^5 cells/flask in T25 flasks. After 48 h, whole cell lysates were prepared from untreated cells or cells treated with vehicle control (EtOH, 0.1% v/v) or compound BI9 (0.5 and 1 μM). HL-60 cells were harvested in RIPA buffer supplemented with protease inhibitors (Roche Diagnostics), phosphatase inhibitor cocktail 2 (Sigma-Aldrich), and phosphatase inhibitor cocktail 3 (Sigma-Aldrich). Equal quantities of protein (as determined by a BCA assay) were resolved by SDS-PAGE (12%) followed by transfer to PVDF membranes. Membranes were blocked in 5% bovine serum albumin/TBST for 1 h. Membranes were incubated in the relevant primary antibodies at 4 °C overnight, washed with TBST, and incubated in horseradish peroxidase conjugated secondary antibody for 1 h at rt and washed again. Western blot analysis was performed as described above using antibodies directed against BAX [1:1000] (Cell Signaling Technology), PARP [1:500] (Cell Signaling Technology) and Bcl-2 [1:500] (Cell Signaling Technology) followed by incubation with a horseradish peroxidase-conjugated anti-mouse antibody [1:2000] (Promega, Madison, WI, USA). All blots were probed with β-actin antibody [1:5000] (Sigma) to confirm equal loading. Proteins were detected using enhanced chemiluminescent Western blot detection (Clarity Western ECL substrate) (Bio Rad) on the ChemiDoc MP System (Bio Rad). […]

bovine brain tubulin = experiment: Tubulin polymerization assay (turbidimetric, kit BK006); type: biochemical; settings: read-out: Anti-Tubulin Activity IC50 ± SD (inhibition of tubulin polymerization)
Method: The assembly of purified bovine tubulin was monitored using a kit, BK006, purchased from Cytoskeleton Inc., (Denver, CO, USA). The assay was carried out in accordance with the manufacturer’s instructions using the standard assay conditions. Briefly, purified ([…]) in a buffer consisting of 80 mM PIPES (pH 6.9), 0.5 mM EGTA, 2 mM MgCl2, 1 mM GTP and 10% glycerol was incubated at 37 °C in the presence of either vehicle (2% (v/v) ddH2O), CA-4, benzotriazole compounds. Light was scattered proportionally to the concentration of polymerized microtubules in the assay. Therefore, the tubulin assembly was monitored turbidimetrically at 340 nm in a Spectramax 340 PC spectrophotometer (Molecular Devices, Sunnyvale, CA, USA). The concentration that inhibits tubulin polymerization by 50% (IC50) was determined using area under the curve (AUC). The AUC of the untreated controls were considered as 100% polymerization. The IC50 value for each compound was computed using GraphPad Prism Software.

[2] = system: HL-60 human leukemia cancer cell line; experiment: MTT viability assay, HL-60; type: cell-based; settings: Homo sapiens, HL-60, 72 h, mean ± SD of three independent experiments, read-out: Antiproliferative Activities IC50, HL-60
Method: as §1, §2

[3] = system: HCT-116 human colon cancer cell line; experiment: MTT viability assay, HCT-116; type: cell-based; settings: Homo sapiens, HCT-116, 72 h, mean ± SD of three independent experiments, read-out: Antiproliferative Activities IC50, HCT-116
Method: as §1, §2

## S=c1[nH]c(-n2nnc3ccccc32)cn1-c1ccc(Cl)cc1Cl [BI9, 4-(1H-Benzo[d][1,2,3]Triazol-1-yl)-1-(2,4-Dichlorophenyl)-1H-Imidazole-2(3H)-Thione]
Bcl-2
  Expression of pro-survival protein Bcl-2: down-regulated
[1]
  IC50: 3570 ± 160 nM
PARP
  PARP cleavage (indicator of apoptosis): confirmed
Bovine brain tubulin
  IC50: 520 ± 20 nM
[2]
  IC50: 400 ± 30 nM
[3]
  IC50: 2630 ± 170 nM
